Assay results from patent publication US20260102492A1, “Inhibition of Natural Killer Cell Cytoxocity” (University of Cincinnati, priority 2022, published 2026).
“Also recorded” adds a separate entry of the source.

Key:
[1] = tested on: HNSCC patient-derived NK cells; assay: CXCL1 ELISA of NK cell culture supernatant; format: cell-based, Human
Experimental: Healthy donor and HNSCC NK cells were isolated from PBMCs and were treated for 24 hrs with vehicle or metformin. Supernatant was collected and analyzed by ELISA (analyzed by one way ANOVA. n=10).
HNSCC NK cells were isolated from PBMCs and treated with vehicle, 12 mM metformin, 50 ng CXCL1, 10 uM everolimus, or 10 uM BP-1-102 for 24 hr. The cells were washed and plated in fresh media. After 24 hrs, supernatant was collected for ELISA.

HNC NK cells = assay: RNA-seq of metformin treated HNSCC patient-derived NK cells; format: cell-based, Human; settings: 12 mM metformin 24 hrs
Experimental: HNC NK cells were isolated as above and were treated with vehicle or 12 mM metformin for 24 hrs. Cells were washed, suspended in CyroStor, and frozen. Samples were sent to Genewiz/Azenta for standard RNA-seq profiling. Sequence reads were aligned to the current reference […] genome (GRCh38) using the STAR aligner (43,44) and the reads aligned to each known gene were counted based on the latest GENCODE definitions of gene features.

pSTAT1 = assay: Western blot of HNSCC NK cell lysates, pSTAT1; format: cell-based, Human; settings: metformin or 50 ng CXCL1, 24 hrs, FIG. 3A/3B
Experimental: NK92, Cal27, UMSCC47 and HN5 cells were cultured with drug as described. Cells were collected in RIPA (0.05% sodium deoxycholate, […], 0.1% SDS, 1% NP-40) and protein content was analyzed by Pierce BCA kit (Thermo 23225). 50 ug of protein was diluted in 1×loading buffer (SDS, bromophenol blue, 47% glycerol, Tris 0.5M pH 6.8, 0.2 mM DTT-G) and heated to 90° C. for 3 minutes. Prepared lysate was loaded into gradient gels (Biorad 4561093) and run at 85V for 1.5 hour in Biorad casing with a Biorad powerpack in 1×running buffer (Tris, Glycine, SDS). Gels were transferred on nitrocellulose and run at 100V on bench for 1 hour in 1×transfer buffer (Tris, Glycine). […] Images were analyzed in Image Studio Lite V 5.2.
To determine what those pathways could be, pathways known to be affected by both metformin and CXCL1 were investigated. pSTAT3 and mTOR are known to be increased by activation of the CXCR2 receptor, and mTOR activation can inhibit pSTAT1 expression. […] Therefore, HNSCC patient-derived NK cells treated with metformin, CXCL1, or CXCR2i (navaxarin) were collected and analyzed by western blot analysis. Head and neck squamous cell carcinoma (HNSCC) natural killer (NK) cells were treated with metformin, 50 ng CXCL1, or 10 uM CXCR2i (navarixin) for 24 hrs and collected for lysates analyzed by western blot analysis (FIG. 3A).

[2] = Peripheral blood cell populations and serum cytokines of HNSCC patients after metformin treatment; format: in vivo, Human
Experimental: An Unpaired 2-tailed T Test With Welch's correction was used for analysis between flow cytometry in controls versus HNSCC patients. A 2-tailed Student's t test was used to compare differences between HNSCC patients before and after treatment in flow cytometry and cytokine experiments. Differences in immune cell populations between three groups were compared by one-way ANOVA with specific post-hoc contrasts. NKCA data were compared using a paired t test. Statistical analysis was performed in GraphPad Prism (V10). Differences between groups were considered statistically significant when P<0.05.

[3] = tested on: HNSCC patient-derived NK cells; assay: NK cell perforin ELISA after co-culture with Cal27 cells; format: cell-based, Human
Experimental: For NK cell perforin assays, NK cells were treated with drug for 24 hrs, washed, and co-cultured with Cal27 cells for 4 hours. Supernatant was then collected, snap frozen in liquid nitrogen and stored at −80 until thawed for single use. For patient samples, undiluted plasma was added directly to ELISA. ELISA kit for perforin was obtained from ABCAM. ELISA was performed according to the manufacturer's protocol. Protocols included overnight coating of capture antibody diluted by lot number recommendation, 1 hr block with 400 uL 2% BSA in PBS, 2 hr sample incubation at room temperature of 100 uL sample (no dilution of sample was performed in these experiments), 2 hr […] diluted by lot number recommendation, 20 min Streptavidin incubation with 100 uL of 1:40 dilution of stock, and 15 min incubation with 100 uL included TMB ELISA reagent. 50 uL stop solution of in house 2N […] was added to stop reaction before reading at […] wavelength on plate reader. All plates included standard curve prepared per lot number recommendation with range of 35-2000 pg.
HNSCC patient-derived NK cells were treated with exogenous CXCL1 and an inhibitor of the CXCL1 receptor, CXCR2, or metformin. Patient-derived NK cells were exposed to Cal27 cells for 4 hours and supernatant was collected for perforin analysis by ELISA. Specifically, HNSCC NK cells derived from PBMCs were treated with 50 ng CXCL1, 12 mM metformin, or 10 nM CXCR2i (navarixin) and subjected to perforin against Cal27 target cells. Cells were analyzed by flow and analyzed by one way ANOVA. n=8.
Specifically, HNSCC NK cells were treated with vehicle, metformin, or 10 uM AMPK inhibitor (Dosomorphin) for 24 hrs, washed, and co-cultured with Cal27 cells for 4 hrs. Supernatant was collected for ELISA and analyzed by one way ANOVA. n=5.
HNSCC patient-derived NK cells were treated with vehicle, metformin, 10 uM mTOR inhibitor (Everolimus), or 10 uM mTOR activator (MHY1485) for 24 hrs, washed, and co-cultured with Cal27 cells for 4 hrs. Supernatant was collected for ELISA and analyzed by one way ANOVA. n=5.
As pSTAT1 can modulate perforin production, HNSCC patient-derived NK cells were treated with vehicle, […], or 10 uM of pSTAT1i inhibitor Fludarabine for 24 hrs, washed, and co-cultured with Cal27 cells for 4 hrs.
HNSCC NK cells were treated with vehicle, 12 mM metformin, 50 ng CXCL1, or 10 uM pSTAT3 inhibitor BP-1012 and co-cultured with Cal27 cells for 4 hrs. Supernatant was collected for ELISA and analyzed by one way ANOVA. n=5.

pSTAT3 = assay: Western blot of HNSCC NK cell lysates, pSTAT3; format: cell-based, Human; settings: metformin or 50 ng CXCL1, 24 hrs; western blot, FIG. 3A/3B
Experimental: NK92, Cal27, UMSCC47 and HN5 cells were cultured with drug as described. Cells were collected in RIPA (0.05% sodium deoxycholate, […], 0.1% SDS, 1% NP-40) and protein content was analyzed by Pierce BCA kit (Thermo 23225). 50 ug of protein was diluted in 1×loading buffer (SDS, bromophenol blue, 47% glycerol, Tris 0.5M pH 6.8, 0.2 mM DTT-G) and heated to 90° C. for 3 minutes. Prepared lysate was loaded into gradient gels (Biorad 4561093) and run at 85V for 1.5 hour in Biorad casing with a Biorad powerpack in 1×running buffer (Tris, Glycine, SDS). Gels were transferred on nitrocellulose and run at 100V on bench for 1 hour in 1×transfer buffer (Tris, Glycine). Membranes were blocked in 5% BSA in TBS for 1 hr, washed, and incubated in primary diluted in 2% BSA in TBS overnight. Membranes were washed and incubated in Licor secondary (Licor 926-32211 and 925-68070) in 5% BSA in TBS for 1 hr. Membranes were washed and imaged on a Licor Odyssey Clx. Images were analyzed in Image Studio Lite V 5.2.
To determine what those pathways could be, pathways known to be affected by both metformin and CXCL1 were investigated. pSTAT3 and mTOR are known to be increased by activation of the CXCR2 receptor, and mTOR activation can inhibit pSTAT1 expression. Metformin is also hypothesized to inhibit pSTAT3 and mTOR in NK cells. Therefore, HNSCC patient-derived NK cells treated with metformin, CXCL1, or CXCR2i (navaxarin) were collected and analyzed by western blot analysis. Head and neck squamous cell carcinoma (HNSCC) natural killer (NK) cells were treated with metformin, 50 ng CXCL1, or 10 uM CXCR2i (navarixin) for 24 hrs and collected for lysates analyzed by western blot analysis (FIG. 3A).

CXCL1 = assay: Patient plasma CXCL1 ELISA, trial NCT04414540 (pembrolizumab and metformin); format: in vivo, Human
[4] = patient serum cytokine profile, after metformin
[5] = patients, after metformin treatment

Question: Which CXCL1 supernatant levels ([1]; HNSCC patient-derived NK cells treated 24 hrs, n=10, FIG. 1) does the source give for `CN(C)C(=N)N=C(N)N` [metformin, Metformin] here?
Answer: The CXCL1 supernatant levels was “inhibits CXCL1 release; also recorded: significantly reduced CXCL1 supernatant levels”.

Question: What about the CXCL1 secretion ([1]; single agent (12 mM metformin, 10 uM everolimus or 10 uM BP-1-102) 24 hr, fresh media 24 hrs, n=5, FIG. 8) of the same compound?
Answer: Its CXCL1 secretion is “reduces CXCL1”.

Question: What about the “CXCL1 expression (RNA-seq)” value (HNC NK cells) of the same compound?
Answer: The value was “significantly downregulated CXCL1”.

Question: What about the pSTAT1 (pSTAT1) of the same compound?
Answer: Its pSTAT1 is “increases pSTAT1; also recorded: increase in pSTAT1”.

Question: What about the “expression of NKG2D” value ([2]; circulating NK and NKT cells, after metformin treatment) of the same compound?
Answer: Its value is “increasing expression of NKG2D back to levels seen in healthy controls”.

Question: And the IL-2 [2, 4]?
Answer: Its IL-2 is “increasing”.

Question: What about the TNF-α [2, 4] of the same compound?
Answer: Its TNF-α is “increasing”.

Question: What about the TEM cells [2, 5] of the same compound?
Answer: The TEM cells was “larger population”.

Question: What about the “circulating NK and NKT cell populations” value [2, 5] of the same compound?
Answer: Its value is “partially restored”.

Question: What about the perforin ([3]; 12 mM Metformin in pSTAT1-inhibited (10 uM Fludarabine) NK cells, Cal27 co-culture 4 hrs, FIG. 6) of the same compound?
Answer: The perforin was “rescued to baseline”.

Question: And the perforin production ([3]; 12 mM metformin or 50 ng CXCL1, Cal27 target cells 4 hours, n=8, FIG. 2)?
Answer: Its perforin production is “increased perforin”.

Question: What about the pSTAT3 (pSTAT3) of the same compound?
Answer: The pSTAT3 was “decreases pSTAT3; also recorded: reduction of pSTAT3”.

Question: And the “circulating CXCL1” value (CXCL1; post-metformin and pembrolizumab combination (week 4), n=5)?
Answer: Its value is “decrease was not retained”.

Question: What about the “circulating CXCL1” value (CXCL1; post-metformin only vs pre-treatment, n=5, FIG. 9) of the same compound?
Answer: Its value is “decreased”.

Question: What about the “circulating CXCL1” value (CXCL1; post-metformin only vs pre-treatment, n=5, FIG. 9, listed as Metformin) of the same compound?
Answer: Its value is “reduced circulating CXCL1”.
